# From article PMC12569736 (Journal of Cosmetic Dermatology, 2025)
# Where two headings read alike, the source gives them in different places.
# Assays:
# MNT‐1 cells [1] = assay: Wash‐out assay, melanin content in MNT‐1 cells after drug withdrawal; format: cell-based, human; conditions: for inhibition at 1 µM / inhibition at 10 µM: Homo sapiens, read-out: melanin inhibition rate after washout; for inhibition at 1 µM: MNT-1, 1 μM for 6 days; for inhibition at 10 µM: MNT-1, 10 μM for 6 days
# Description: MNT‐1 cells were treated with 1 or 10 μM KT‐939 for six days, after which the drug‐containing medium was replaced with standard culture medium. Melanin content was measured at various time points.
# FIGURE 4 The inhibitory effect of KT‐939 on melanin production is reversible. MNT‐1 cells were exposed to 1 or 10 μM of KT‐939 for 6 days, followed by drug washout and replacement with normal medium. Melanin content was measured at specified time points. Data represent the mean ± standard deviation of three independent experiments.
# [2] = tested on: NRF2/ARE signaling pathway; assay: NRF2/ARE‐luciferase reporter assay in HEK293T cells; format: cell-based, human; conditions: 10 µM, 48 h, relative to DMSO
# Description: The NRF2‐responsive firefly luciferase reporter plasmid (pGL4.27_ARE NRF2‐SPE) and Renilla luciferase control plasmid (pRL‐TK) were co‐transfected into HEK293T cells using Lipofectamine 2000. After 24 h, transfected cells were seeded into 96‐well plates and incubated overnight. Test compounds (10 μM) were added, and cells were incubated for an additional 48 h. Luciferase activities were measured using the Dual‐Lumi Luciferase Reporter Assay Kit (Beyotime Biotechnology), following the manufacturer's instructions.
# FIGURE 6 KT‐939 activates the ARE/NRF2 signaling pathway. HEK293T cells transfected with an NRF2‐responsive firefly luciferase reporter were treated with 10 µM of KT‐939, hydroquinone (Hq), 377, or 4‐butylresorcinol for 48 h. Luminescence signals were normalized to renilla and expressed relative to DMSO control. *** p < 0.001 vs DMSO.
# [3] = tested on: LPS‐stimulated RAW264.7 cells; assay: RT‐qPCR of inflammatory cytokines in LPS‐stimulated RAW264.7 cells; format: cell-based, mouse; conditions: 3, 10 or 30 μM pretreatment 2 h, then 100 ng/mL LPS 16 h, vs LPS group
# Description: RAW264.7 cells were treated with KT‐939 at concentrations of 3, 10, or 30 μM and incubated for 2 h. After pretreatment, cells were stimulated with 100 ng/mL LPS for an additional 16 h. Total RNA was extracted using the MiniBEST RNA Extraction Kit (Takara Bio) per the manufacturer's protocol. Reverse transcription and SYBR Green‐based qPCR were performed with ABScript II One Step RT‐qPCR Kit (Abclonal). RT‐PCR primer sequences were as follows: (Mouse) TNF‐α sense: 5‐[…]‐3, antisense: 5‐[…]‐3; (Mouse) IL‐6 sense: 5‐[…]‐3, antisense: 5‐[…]‐3; (Mouse) IL‐1α sense: 5‐[…]‐3, antisense: 5‐[…]‐3; (Mouse) GAPDH sense: 5‐[…]‐3, antisense: 5‐[…]‐3; Expression of target gene mRNA was normalized to GAPDH, and results were analyzed using GraphPad software.
# RAW264.7 cells were pre‐treated with different concentrations of KT‐939, followed by the addition of 100 ng/mL LPS for 16 h. mRNA levels of TNF‐α, IL‐6, and IL‐1α were quantified by RT‐PCR and compared to the LPS‐induced group (*p < 0.05, **p < 0.01, ***p < 0.001).
# MNT‐1 cells [4] = assay: Cell viability, MNT‐1; format: cell-based, human; conditions: MNT‐1, 72 h, up to 50 μM
# Description: B16‐F10, MNT‐1, and HaCaT cells (5000 cells/well) were seeded into 96‐well plates and incubated overnight. Culture medium (50 μL) containing varying concentrations of KT‐939 was added to each well, and cells were incubated for 72 h. Cell viability was assessed using the Cell Viability Assay Kit (Vazyme Biotech), following the manufacturer's instructions. Luminescence was measured using a Synergy H1 Hybrid Reader. DMSO‐treated cells served as the control, and survival rates were calculated and analyzed with GraphPad software.
# B16‐F10, MNT‐1, and HaCaT cells were incubated with different concentrations of KT‐939 for 72 h. Cell viability was assessed and normalized to the DMSO‐treated control group.
compound,measurement,setting,value
"CC1(C(=O)Nc2nc(-c3ccc(O)cc3O)cs2)COC1 [KT‐939, N‐(4‐(2,4‐Dihydroxyphenyl) Thiazol‐2‐yl)‐3‐Methyloxetane‐3‐Carboxamide]",melanin inhibition after washout,"MNT‐1 cells [1]; 1 μM for 6 days, after seven days",returning to baseline
same,melanin content after washout,"MNT‐1 cells [1]; 10 μM for 6 days, after 11 days of drug withdrawal",fully returned to normal levels
same,inhibition at 1 µM,MNT‐1 cells [1]; day 3 after washout,38%
same,inhibition at 1 µM,MNT‐1 cells [1]; day 5 after washout,28.3%
same,inhibition at 10 µM,MNT‐1 cells [1]; day 3 after washout,66.6%
same,inhibition at 10 µM,MNT‐1 cells [1]; day 5 after washout,52.7%
same,inhibition at 10 µM,MNT‐1 cells [1]; day 7 after washout,21.3%
same,inhibition at 10 µM,MNT‐1 cells [1]; day 9 after washout,20%
same,NRF2 signaling pathway activation (luciferase reporter),[2],significantly enhanced the NRF2 signaling pathway
same,IL‐1α mRNA level,[3],dose‐dependent decrease
same,IL‐6 mRNA level,[3],dose‐dependent decrease
same,TNF‐α mRNA level,[3],dose‐dependent decrease
same,cytotoxicity (cell viability),MNT‐1 cells [4],no significant cytotoxicity
